Source: US12594285B2, “Compositions and methods for protecting against airborne pathogens and irritants” (APPLIED BIOLOGICAL LABORATORIES, INC., priority 2016, dated 2026)

Tests used:
[1] = system: Influenza A H1N1 (clinical strain: A/California/7/09); assay: Apical Influenza replication by quantitative RT-PCR (Example 5); type: cell-based; conditions: 3.5, 24 and 48 hours pi; Oseltamivir 10 μM in basal medium
[2] = system: Human Rhinovirus A16 (clinical strain: QCHRV.16); assay: Apical Rhinovirus replication by quantitative RT-PCR (Example 4); type: cell-based; conditions: 3.5, 24 and 48 hours pi; formulations applied apically at 0, 3.5 and 24 h; Rupintrivir 5 μM in basal medium
[3] = system: Human Rhinovirus A16 (clinical strain: QCHRV.16); assay: Apical Rhinovirus replication by quantitative RT-PCR (Example 6); type: cell-based; conditions: Example 6; Rupintrivir 5 μM in basal medium; 3.5, 24 and 48 hours pi
[4] = system: MucilAir™ 3D model of human airway epithelium infected with Rhinovirus A16; assay: TEER tissue integrity, MucilAir inoculated with Rhinovirus A16 (Example 4); conditions: toxic positive control, 10% Triton X-100, after cell damage

## CCOC(=O)C1=C[C@@H](OC(CC)CC)[C@H](NC(C)=O)[C@@H](N)C1 [Oseltamivir]
[1]
  Influenza A H1N1 replication (genome copy number, apical washes): inhibited

## CCOC(=O)/C=C/[C@H](C[C@@H]1CCNC1=O)NC(=O)[C@@H](CC(=O)[C@@H](NC(=O)c1cc(C)on1)C(C)C)Cc1ccc(F)cc1 [Rupintrivir]
[2]
  Rhinovirus A16 replication (genome copy number, apical washes): inhibited
[3]
  Rhinovirus A16 replication (genome copy number, apical washes): inhibited

## Triton X-100
[4]
  TEER: below 100 Ωcm^2
